PubChem BioAssay AID330 (DTP/NCI, 2004)
Several values for one entry are separate records, joined by “and”; a condition that tells them apart may be missing. Equal values may be shown once. Toxic doses and inconclusive results are not listed.

System: P388 leukemia ip, CD2F1 mice, survival T/C
Test: NCI In Vivo Anticancer Drug Screen. Data for tumor model P388 Leukemia (intraperitoneal) in CD2F1 (CDF1) mice
Conditions: endpoint: median survival time, higher = longer survival
Method in brief: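 Mice carrying the transplanted tumor received test compound or vehicle. Survival was recorded in each group, and the value is the treated-group measurement divided by that of the vehicle-treated control group.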

[1] = dose: 12.5 mg/kg/injection, schedule: Q01DX009 (ip), vehicle: Klucel (hydroxypropylcellulose) (HPC)
[2] = dose: 50.0 mg/kg/injection, schedule: Q01DX009 (ip), vehicle: Klucel (hydroxypropylcellulose) (HPC)
[3] = dose: 50.0 mg/kg/injection, schedule: Q01DX009 (ip), vehicle: saline with Tween-80
[4] = dose: 50.0 mg/kg/injection, schedule: Q01DX009 (ip), vehicle: saline
[5] = dose: 100.0 mg/kg/injection, schedule: Q01DX009 (ip), vehicle: saline with Tween-80
[6] = dose: 100.0 mg/kg/injection, schedule: Q01DX009 (ip), vehicle: saline
[7] = dose: 200.0 mg/kg/injection, schedule: Q01DX009 (ip), vehicle: Klucel (hydroxypropylcellulose) (HPC)
[8] = dose: 200.0 mg/kg/injection, schedule: Q01DX009 (ip), vehicle: saline with Tween-80
[9] = dose: 12.5 mg/kg/injection, schedule: Q01DX009 (ip), vehicle: saline
[10] = dose: 25.0 mg/kg/injection, schedule: Q01DX009 (ip), vehicle: saline
[11] = dose: 25.0 mg/kg/injection, schedule: Q01DX009 (ip), vehicle: Klucel (hydroxypropylcellulose) (HPC)
[12] = dose: 50.0 mg/kg/injection, schedule: Q01DX005 (ip), vehicle: saline with Tween-80
[13] = dose: 100.0 mg/kg/injection, schedule: Q01DX005 (ip), vehicle: saline with Tween-80

## O=C1CC2CCC(C1)N2C(=O)Oc1ccccc1
dose: 100.0 mg/kg/injection, schedule: Q01DX001 (ip), vehicle: Klucel (hydroxypropylcellulose) (HPC)
  T/C: 101 % of control
dose: 200.0 mg/kg/injection, schedule: Q01DX001 (ip), vehicle: Klucel (hydroxypropylcellulose) (HPC)
  T/C: 93 % of control
dose: 400.0 mg/kg/injection, schedule: Q01DX001 (ip), vehicle: Klucel (hydroxypropylcellulose) (HPC)
  T/C: 92 % of control

## OC(CBr)C(O)C(O)C(O)CBr (stereo unspecified)
[1]
  T/C: 106 % of control
dose: 36.0 mg/kg/injection, schedule: Q01DX005 (ip), vehicle: Klucel (hydroxypropylcellulose) (HPC)
  T/C: 107 % of control and 109 % of control
[2]
  T/C: 115 % of control
dose: 50.0 mg/kg/injection, schedule: Q01DX009 (ip), vehicle: distilled water + Tween-80
  T/C: 114 % of control
[3]
  T/C: 107 % of control
[4]
  T/C: 96 % of control
dose: 50.0 mg/kg/injection, schedule: Q01DX010 (ip), vehicle: saline
  T/C: 109 % of control
dose: 53.0 mg/kg/injection, schedule: Q01DX005 (ip), vehicle: Klucel (hydroxypropylcellulose) (HPC)
  T/C: 120 % of control
dose: 80.0 mg/kg/injection, schedule: Q01DX005 (ip), vehicle: Klucel (hydroxypropylcellulose) (HPC)
  T/C: 173 % of control
dose: 100.0 mg/kg/injection, schedule: Q01DX009 (ip), vehicle: distilled water + Tween-80
  T/C: 124 % of control
[5]
  T/C: 114 % of control
[6]
  T/C: 123 % of control
dose: 100.0 mg/kg/injection, schedule: Q01DX010 (ip), vehicle: saline
  T/C: 109 % of control
dose: 120.0 mg/kg/injection, schedule: Q01DX005 (ip), vehicle: Klucel (hydroxypropylcellulose) (HPC)
  T/C: 170 % of control and 207 % of control
dose: 180.0 mg/kg/injection, schedule: Q01DX005 (ip), vehicle: Klucel (hydroxypropylcellulose) (HPC)
  T/C: 163 % of control and 181 % of control
[7]
  T/C: 107 % of control
dose: 200.0 mg/kg/injection, schedule: Q01DX009 (ip), vehicle: distilled water + Tween-80
  T/C: 122 % of control
[8]
  T/C: 113 % of control
dose: 200.0 mg/kg/injection, schedule: Q01DX010 (ip), vehicle: saline
  T/C: 109 % of control
dose: 200.0 mg/kg/injection, schedule: Q04DX003 (ip), vehicle: Klucel (hydroxypropylcellulose) (HPC)
  T/C: 190 % of control
dose: 300.0 mg/kg/injection, schedule: Q04DX003 (ip), vehicle: Klucel (hydroxypropylcellulose) (HPC)
  T/C: 200 % of control
dose: 400.0 mg/kg/injection, schedule: Q01DX009 (ip), vehicle: Klucel (hydroxypropylcellulose) (HPC)
  T/C: 93 % of control
dose: 400.0 mg/kg/injection, schedule: Q01DX009 (ip), vehicle: distilled water + Tween-80
  T/C: 86 % of control
dose: 400.0 mg/kg/injection, schedule: Q01DX009 (ip), vehicle: saline with Tween-80
  T/C: 117 % of control
dose: 800.0 mg/kg/injection, schedule: Q01DX009 (ip), vehicle: saline with Tween-80
  T/C: 120 % of control

## O=S(=O)(O)O.[NH-]CC([NH-])c1ccccc1.[Pt+2] (stereo unspecified)
dose: 6.25 mg/kg/injection, schedule: Q04DX002 (ip), vehicle: saline with Tween-80
  T/C: 184 % of control
dose: 12.5 mg/kg/injection, schedule: Q04DX002 (ip), vehicle: saline with Tween-80
  T/C: 88 % of control

## CCOC(=O)c1c(NC(=S)NC)sc(C)c1C
[3]
  T/C: 106 % of control
[5]
  T/C: 89 % of control
[8]
  T/C: 106 % of control

## C=C(C)C(Br)=C(C)C
dose: 12.5 mg/kg/injection, schedule: Q01DX001 (ip), vehicle: saline with Tween-80
  T/C: 108 % of control
dose: 25.0 mg/kg/injection, schedule: Q01DX001 (ip), vehicle: saline with Tween-80
  T/C: 107 % of control
dose: 50.0 mg/kg/injection, schedule: Q01DX001 (ip), vehicle: saline with Tween-80
  T/C: 99 % of control

## O=[N+]([O-])c1nccn1CC(O)CO (stereo unspecified)
[9]
  T/C: 103 % of control and 116 % of control
[10]
  T/C: 101 % of control and 121 % of control
[4]
  T/C: 103 % of control and 116 % of control and 98 % of control
[6]
  T/C: 102 % of control and 106 % of control and 116 % of control
dose: 200.0 mg/kg/injection, schedule: Q01DX009 (ip), vehicle: saline
  T/C: 104 % of control and 107 % of control and 121 % of control
dose: 360.0 mg/kg/injection, schedule: Q01DX001 (ip), vehicle: saline
  T/C: 101 % of control and 102 % of control
dose: 400.0 mg/kg/injection, schedule: Q01DX009 (ip), vehicle: saline
  T/C: 102 % of control and 106 % of control
dose: 600.0 mg/kg/injection, schedule: Q01DX001 (ip), vehicle: saline
  T/C: 100 % of control and 102 % of control
dose: 1000.0 mg/kg/injection, schedule: Q01DX001 (ip), vehicle: saline
  T/C: 101 % of control and 104 % of control

## CC(C)(O)[C@H]1[C@@H]2OC(=O)[C@H]1[C@]1(O)C[C@H]3OC34C(=O)O[C@H]2[C@@]41C (stereo partly specified) (tested in a mixture with another compound)
dose: 0.25 mg/kg/injection, schedule: Q01DX009 (ip), vehicle: Klucel (hydroxypropylcellulose) (HPC)
  T/C: 99 % of control
dose: 0.5 mg/kg/injection, schedule: Q01DX009 (ip), vehicle: Klucel (hydroxypropylcellulose) (HPC)
  T/C: 113 % of control
dose: 1.0 mg/kg/injection, schedule: Q01DX009 (ip), vehicle: Klucel (hydroxypropylcellulose) (HPC)
  T/C: 100 % of control
dose: 2.0 mg/kg/injection, schedule: Q01DX009 (ip), vehicle: Klucel (hydroxypropylcellulose) (HPC)
  T/C: 96 % of control
[11]
  T/C: 99 % of control
[2]
  T/C: 105 % of control
dose: 100.0 mg/kg/injection, schedule: Q01DX009 (ip), vehicle: Klucel (hydroxypropylcellulose) (HPC)
  T/C: 106 % of control
[7]
  T/C: 96 % of control

## Cc1cc(OC(=O)c2c(C)cc(O)cc2O)cc(O)c1C(=O)O
dose: 0.25 mg/kg/injection, schedule: Q01DX009 (ip), vehicle: saline with Tween-80
  T/C: 101 % of control
dose: 0.5 mg/kg/injection, schedule: Q01DX009 (ip), vehicle: saline with Tween-80
  T/C: 102 % of control
dose: 1.0 mg/kg/injection, schedule: Q01DX009 (ip), vehicle: saline with Tween-80
  T/C: 101 % of control

## O=C(SCc1oc2ccccc2c1O)c1ccccc1
dose: 12.5 mg/kg/injection, schedule: Q01DX009 (ip), vehicle: saline with Tween-80
  T/C: 103 % of control
dose: 25.0 mg/kg/injection, schedule: Q01DX009 (ip), vehicle: saline with Tween-80
  T/C: 104 % of control
[3]
  T/C: 112 % of control
[5]
  T/C: 94 % of control

## CC(=O)NCCSSCCSC(=S)N1CCCCC1
dose: 50.0 mg/kg/injection, schedule: Q01DX005 (ip), vehicle: Klucel (hydroxypropylcellulose) (HPC)
  T/C: 112 % of control
dose: 100.0 mg/kg/injection, schedule: Q01DX005 (ip), vehicle: Klucel (hydroxypropylcellulose) (HPC)
  T/C: 107 % of control
dose: 200.0 mg/kg/injection, schedule: Q01DX005 (ip), vehicle: Klucel (hydroxypropylcellulose) (HPC)
  T/C: 102 % of control

## CNNC(=O)OC
dose: 25.0 mg/kg/injection, schedule: Q01DX002 (ip), vehicle: saline
  T/C: 101 % of control
dose: 50.0 mg/kg/injection, schedule: Q01DX002 (ip), vehicle: saline
  T/C: 102 % of control
dose: 100.0 mg/kg/injection, schedule: Q01DX002 (ip), vehicle: saline
  T/C: 120 % of control

## O=C1NC(=O)C2CC3C(CC12)C1C(=O)NC(=O)C31 (stereo unspecified)
[12]
  T/C: 104 % of control
[13]
  T/C: 101 % of control

## CC1(C)CC(C)(OC(=O)c2ccc([N+](=O)[O-])cc2)[N+]([O-])=N1 (stereo unspecified)
dose: 12.5 mg/kg/injection, schedule: Q01DX009 (ip), vehicle: other
  T/C: 96 % of control
dose: 25.0 mg/kg/injection, schedule: Q01DX009 (ip), vehicle: other
  T/C: 100 % of control
dose: 50.0 mg/kg/injection, schedule: Q01DX009 (ip), vehicle: other
  T/C: 95 % of control
dose: 100.0 mg/kg/injection, schedule: Q01DX009 (ip), vehicle: other
  T/C: 94 % of control
dose: 200.0 mg/kg/injection, schedule: Q01DX009 (ip), vehicle: other
  T/C: 88 % of control

## CCCCCN(CCCCC)CC(O)c1c(OC)ccc2ccccc12 (stereo unspecified)
[1]
  T/C: 102 % of control
[11]
  T/C: 103 % of control
[2]
  T/C: 94 % of control

## CCCCCCN(CCCCCC)CC(O)c1ccc(Br)c2ccccc12 (stereo unspecified)
[12]
  T/C: 93 % of control
[13]
  T/C: 93 % of control
dose: 200.0 mg/kg/injection, schedule: Q01DX005 (ip), vehicle: saline with Tween-80
  T/C: 88 % of control

## CC(=O)OC(CO)C(OC(C)=O)C(CNc1nc(N)[nH]c(=O)c1[N+](=O)[O-])OC(C)=O (stereo unspecified)
dose: 60.0 mg/kg/injection, schedule: Q01DX005 (ip), vehicle: saline with Tween-80
  T/C: 101 % of control
dose: 120.0 mg/kg/injection, schedule: Q01DX005 (ip), vehicle: saline with Tween-80
  T/C: 92 % of control
dose: 240.0 mg/kg/injection, schedule: Q01DX005 (ip), vehicle: saline with Tween-80
  T/C: 92 % of control

## OCC1OC(Nc2ccccc2/C=N\O)C(O)C1O (stereo unspecified)
[9]
  T/C: 98 % of control
[10]
  T/C: 107 % of control and 96 % of control
[4]
  T/C: 99 % of control and 115 % of control
[6]
  T/C: 98 % of control and 95 % of control
